Measured values as given in patent US10206902B2, “Mono- or di-substituted indoles as dengue viral replication inhibitors” (priority 2014, dated 2019).

Tests used:
uninfected Vero cells = experiment: in vitro; assay type: cell-based; conditions: African green monkey
Experimental: Potential cytotoxic effects of the compounds were evaluated in uninfected Vero cells. Cells were seeded at 4×10^4 cells/well in a 96-well plate in the presence of two-, three- or five-fold serial dilutions (ranging from 50 μg/mL-0.0038 μg/mL, 50 μg/mL-0.0076 μg/mL, and 50 μg/mL-0.00013 μg/mL, respectively) of compound and incubated for 4 to 7 days. Culture medium was discarded and 100 μL 3-(4,5-dimethylthiazol-2-yl)-5-(3-carboxymethoxyphenyl)-2-(4-sulfophenyl)-2H-tetrazolium/phenazinemethosulfate (MTS/PMS; Promega, Leiden, The Netherlands) in PBS was added to each well. Following a 2-hour incubation period at 37° C., the optical density was determined at 498 nm. Cytotoxic activity was calculated using the following formula: % cell viability=100×(ODCompound/ODCC), where ODcompound and ODCC correspond to the optical density at 498 nm of the uninfected cell cultures treated with compound and that of uninfected, untreated cell cultures, respectively. The 50% cytotoxic concentration (i.e., the concentration that reduces the total cell number with 50%; CC50) was calculated using linear interpolation (Tables 7 and 8).

Vero cells = experiment: in vitro; assay type: cell-based; conditions: African green monkey
Experimental: (§1) In parallel, the toxicity of the compounds was assessed on the same plates. Once the read-out for the eGFP signal was done, 10 μL of resazurin, a cell viability stain, was added to all wells of the 384-well plates. The resazurin assay is based on the reduction of the blue resazurin by NADH, produced by the cells, into the highly fluorescent product, resorufin. The formation of pink fluorescent resorufin is directly related to the number of viable cells in the well. The plates were incubated for an additional 5 hours in a fully humidified incubator (37° C., 5% CO2). Next, the plates were measured on an Infinite reader (Tecan) using an excitation wavelength of 530 nm. The half maximal cytotoxic concentration (CO50) was also determined, defined as the concentration required to reduce the resazurin conversion by 50% compared to that of the cell control wells (Table 1). Finally, the selectivity index (SI) was determined for the compounds, which was calculated as followed: SI=CC50/EC50.

in vitro = assay type: cell-based; conditions: African green monkey, CC50
Experimental: as §1

[1] = Chiral stability of Enantiomer 1A at pH 7.4 (ee% by chiral SFC); assay type: physicochemical; conditions: buffered solution pH 7.4, 5 μM
Experimental: The chiral stability of Enantiomer 1A (R═OMe) was evaluated by determination of the enantiomeric excess (ee %) after incubation for 24 h and 48 h in a buffered solution at pH 7.4 at 40° C. and 60° C. To assess the influence of the methoxy-substituent of Enantiomer 1A (R═OMe) on the stability against racemization, the chiral stability of Enantiomer 1′A (R═H) was tested under the same conditions.
To this end, 5 μM buffered (pH=7.4) solutions of 1A and 1′A were prepared by mixing 25 μL of a 100 μM solution of 1A or 1′A in DMSO with 475 μL aqueous buffer pH 7.4. Samples were taken 24 h and 48 h after incubation at 40° C. and 60° C. The analytical samples were analyzed by Chiral SFC (MS detection) and the chiral purity was expressed as the enantiomeric excess (ee %=% enantiomer A−% enantiomer B).

Structure (SMILES) | CC50 (uninfected Vero cells) [µM] | CC50 (Vero cells) [µM] | further results
COc1cc(NC(C(=O)c2c[nH]c3cc(Cl)ccc23)c2ccc(F)cc2OC)cc(OCCO)c1 (single isomer, unassigned) [Compound 4A, 1-(6-chloro-1H-indol-3-yl)-2-(4-fluoro-2-methoxyphenyl)-2-((3-(2-hydroxyethoxy)-5-methoxyphenyl)amino)ethanone] | 18 | 5.9 | 
COc1cc(NC(C(=O)c2c[nH]c3c(F)cc(C)cc23)c2ccc(F)cc2OC)cc(OCCO)c1 (single isomer, unassigned) [Compound 12B, 2-(4-fluoro-2-methoxyphenyl)-1-(7-fluoro-5-methyl-1H-indol-3-yl)-2-((3-(2-hydroxyethoxy)-5-methoxyphenyl)amino)ethanone] | 14 | 5.5 | 
COc1cc(NC(C(=O)c2c[nH]c3cc(OC)c(F)cc23)c2ccc(F)cc2OC)cc(OCCO)c1 (single isomer, unassigned) [Compound 7A, 2-(4-fluoro-2-methoxyphenyl)-1-(5-fluoro-6-methoxy-1H-indol-3-yl)-2-((3-(2-hydroxyethoxy)-5-methoxyphenyl)amino)ethanone] | 18 |  | CC50 (in vitro): > 8.6 µM
COc1cc(NC(C(=O)c2c[nH]c3c(Cl)c(OC)ccc23)c2ccc(F)cc2OC)cc(OCCO)c1 (single isomer, unassigned) [Compound 8A, 1-(7-chloro-6-methoxy-1H-indol-3-yl)-2-(4-fluoro-2-methoxyphenyl)-2-((3-(2-hydroxyethoxy)-5-methoxyphenyl)amino)ethanone] |  | 8.6 | 
COc1cc(NC(C(=O)c2c[nH]c3c(C)c(F)ccc23)c2ccc(F)cc2OC)cc(OCCO)c1 (single isomer, unassigned) [Compound 2B, 2-(4-fluoro-2-methoxyphenyl)-1-(6-fluoro-7-methyl-1H-indol-3-yl)-2-((3-(2-hydroxyethoxy)-5-methoxyphenyl)amino)ethanone] | 15 | 5.3 | 
COc1cc(NC(C(=O)c2c[nH]c3c(F)c(F)ccc23)c2ccc(F)cc2OC)cc(OCCO)c1 (single isomer, unassigned) [Compound 5B, 1-(6,7-difluoro-1H-indol-3-yl)-2-(4-fluoro-2-methoxyphenyl)-2-((3-(2-hydroxyethoxy)-5-methoxyphenyl)amino)ethanone] | 11 | 6.5 | 
COc1cc(NC(C(=O)c2c[nH]c3c(C)c(OC)ccc23)c2ccc(F)cc2OC)cc(OCCO)c1 (single isomer, unassigned) [Compound 11A, 2-(4-fluoro-2-methoxyphenyl)-2-((3-(2-hydroxyethoxy)-5-methoxyphenyl)amino)-1-(6-methoxy-7-methyl-1H-indol-3-yl)ethanone] | 12 | 8.9 | 
COc1cc(NC(C(=O)c2c[nH]c3cc(OC)c(C)cc23)c2ccc(F)cc2OC)cc(OCCO)c1 (single isomer, unassigned) [Compound 6A, 2-(4-fluoro-2-methoxyphenyl)-2-((3-(2-hydroxyethoxy)-5-methoxyphenyl)amino)-1-(6-methoxy-5-methyl-1H-indol-3-yl)ethanone] | 17 |  | CC50 (in vitro): 7.5 µM
COc1cc(NC(C(=O)c2c[nH]c3c(C)c(Cl)ccc23)c2ccc(F)cc2OC)cc(OCCO)c1 (single isomer, unassigned) [Compound 3A, 1-(6-chloro-7-methyl-1H-indol-3-yl)-2-(4-fluoro-2-methoxyphenyl)-2-((3-(2-hydroxyethoxy)-5-methoxyphenyl)amino)ethanone] | 13 |  | 
COc1cc(NC(C(=O)c2c[nH]c3cc(F)ccc23)c2ccc(F)cc2OC)cc(OCCO)c1 (single isomer, unassigned) [Compound 1A, 1-(6-fluoro-1H-indol-3-yl)-2-(4-fluoro-2-methoxyphenyl)-2-((3-(2-hydroxyethoxy)-5-methoxyphenyl)amino)ethanone] |  | 8.4 | ee% (enantiomeric excess) ([1]; 40° C., 24 h): 100%; ee% (enantiomeric excess) ([1]; 40° C., 48 h): 100%; ee% (enantiomeric excess) ([1]; 60° C., 24 h): 100%; ee% (enantiomeric excess) ([1]; 60° C., 48 h): 96%
COc1cc(NC(C(=O)c2c[nH]c3cc(F)c(F)cc23)c2ccc(F)cc2OC)cc(OCCO)c1 (single isomer, unassigned) [Compound 10B, 1-(5,6-difluoro-1H-indol-3-yl)-2-(4-fluoro-2-methoxy-phenyl)-2-((3-(2-hydroxyethoxy)-5-methoxyphenyl)amino)ethanone] | 11 | 6.9 | 
COc1cc(NC(C(=O)c2c[nH]c3c(C)cc(F)cc23)c2ccc(F)cc2OC)cc(OCCO)c1 (single isomer, unassigned) [Compound 9B, 2-(4-fluoro-2-methoxyphenyl)-1-(5-fluoro-7-methyl-1H-indol-3-yl)-2-((3-(2-hydroxyethoxy)-5-methoxyphenyl)amino)ethanone] | 14 | 5.5 | 
